{"source": "patent US10945951B2", "about": "“Apparatus for compound dispersion” (Biogen MA Inc., priority 2014, dated 2021)", "key": {"[1]": {"experiment": "Live imaging of intrathecally injected Gd-DTPA in dog", "type": "in vivo", "protocol": "For this experiment, an adult male two-year-old beagle was intrathecally injected at the L4-L5 space and live imaging was performed under anesthesia for five hours.\nFIGS. 15C-15G show the signal counts corresponding to the presence of Gd-DTPA over the five hour monitoring period. The various monitored locations included the hippocampus, spinal column, substantia nigra, cortex, and striatum."}, "[2]": {"experiment": "PET imaging of distribution of lumbar intrathecally injected 64Cu-DOTA, bolus volume and respiratory vest force", "type": "in vivo, Cynomolgus monkeys", "conditions": "lumbar intrathecal", "protocol": "The ability of a time varying force applied to the torso of a patient and increased bolus volumes to enhance CNS exposure of intrathecally injected compounds was tested in cynomolgus monkeys. Specifically, live whole animal positron emission tomography (PET) imaging was used to monitor the distribution of intrathecally injected ^64Cu-DOTA given as a compound surrogate. This approach allowed the direct imaging of the impact of the convective force on compound spread in CSF and the exposure of the primate CNS to the compound. During the experiments, Cynomolgus monkeys were given a lumbar intrathecal injection of ^64Cu-DOTA in a volume of either 0.36 ml (about 3% of the total CSF volume) or 1.86 ml (about 15% of the total CSF volume), see FIG. 6. The 3% total CSF volume was chosen to mimic a typical lumbar intrathecal injection volume of about 5 ml that is used clinically. Following lumbar intrathecal injection, the animals were placed in a respiratory vest for 20 minutes. The vest was turned on for 20 minutes only for those animals in which the effect of the time varying force enhanced convection was tested. Animals wearing the vest without activating the time varying force feature served as controls. Animals were then imaged with PET scanning for a time window of 30-60 min post dosing."}, "[3]": {"conditions": "20 μl bolus, intrathecal", "protocol": "The same amount of each probe was used in each injected bolus. However, the total bolus volumes for the separate injections were 20 μl and 30 μl followed by a 40 μl saline flush. The boluses were injected intrathecally into rodents and the concentration of the two probes was monitored at the lumbar, thoracic, and cervical regions."}, "[4]": {"experiment": "SPECT imaging of two probes injected in a single bolus into lumbar cistern and cisterna magna", "type": "in vivo, rat", "conditions": "single 20 ml bolus, lumbar cistern and cisterna magna injection", "protocol": "Two different probes including different isotopes were injected via a single […] bolus into rodents and then imaged at different energies. […] FIG. 8B depicts a structure of the second mitochondria targeting probe ^99mTc-Sestamibi. The bolus was injected into the lumbar cistern and the cisterna magna to help distinguish uptake into interstitial spaces versus uptake into intracellular compartments, see FIG. 8C. […] Consequently, it is apparent that the cell affinity of a compound for the structures and tissue within the CNS should be considered when determining the optimal parameters, such as injection site, bolus volume, and the applied forces, needed to ensure a compound reaches a desired target site."}}, "data": [{"compound": "O=C([O-])CN(CCN(CC(=O)[O-])CC(=O)O)CCN(CC(=O)[O-])CC(=O)O.[Gd+3]", "note": "[Gd-DTPA]", "values": [{"measurement": "signal intensity over time in hippocampus, spinal column, substantia nigra, cortex and striatum", "setting": "[1]; intrathecal injection at L4-L5, five hour monitoring period", "result": "increase in the measured signal intensity over time"}, {"measurement": "location in the brain (cellular uptake vs interstitial spaces)", "setting": "[1]; intrathecal injection at L4-L5, live imaging five hours", "result": "not taken up into the cells but instead was located in the interstitial spaces of the brain"}]}, {"compound": "O=C([O-])CN1CCN(CC(=O)O)CCN(CC(=O)[O-])CCN(CC(=O)O)CC1.[64Cu+2]", "note": "[^64Cu-DOTA]", "values": [{"measurement": "CNS exposure / compound spread in CSF", "setting": "[2]; 3% CSF volume (0.36 ml), respiratory vest turned on 20 minutes, PET 30-60 min post dosing", "result": "the entire spinal cord, and brainstem displayed exposure"}, {"measurement": "CNS exposure / compound spread in CSF", "setting": "[2]; 3% CSF volume (0.36 ml), vest not turned on, PET 30-60 min post dosing", "result": "only reached the lower thoracic spinal cord"}, {"measurement": "CNS exposure / compound spread in CSF", "setting": "[2]; 15% CSF volume (1.86 ml), combined with time varying forces of the vest", "result": "greatest rostral spread"}, {"measurement": "CNS exposure / compound spread in CSF", "setting": "[2]; 15% CSF volume (1.86 ml), vest not activated, PET 30-60 min post dosing", "result": "exposure over the entire spinal cord and portions of the brainstem"}]}, {"compound": "[C-]#[N+]CC(C)(C)OC.[C-]#[N+]CC(C)(C)OC.[C-]#[N+]CC(C)(C)OC.[C-]#[N+]CC(C)(C)OC.[C-]#[N+]CC(C)(C)OC.[C-]#[N+]CC(C)(C)OC.[Tc]", "note": "[^99mTc-Sestamibi]", "values": [{"measurement": "concentration in the lumbar region at injection", "setting": "[3]", "result": "initially high concentration"}, {"measurement": "concentration over time in the thoracic and cervical regions", "setting": "[3]", "result": "did not increase"}, {"measurement": "distribution along the CNS", "setting": "[4]", "result": "showed very little distribution along the CNS"}]}, {"compound": "^111In-DTPA", "values": [{"measurement": "distribution along the CNS", "setting": "[4]", "result": "showed distribution from the injection site towards the head of the rodent along the CNS"}]}]}
